Measured values as given in publication PMC10552397 (Cell Communication and Signaling : CCS, 2023).

What was measured:
HeLa wt cells [1] = assay: Transmission electron microscopy of Golgi apparatus, HeLa wt; type: cell-based; conditions: 24 h
Method: HeLa wt and HeLa GRASP55 KO cells were seeded into 10 cm dishes. […] After treatment, cells were washed with Dulbecco´s phosphate-buffered saline (DPBS, Thermo Fisher Scientific, Waltham, MA, USA, #14,190,250) and then fixed using 2.5% glutaraldehyde and 4% paraformaldehyde in 0.1 M sodium cacodylate, pH 7.4 overnight at 4 °C. Then, cells were harvested with a cell scraper and centrifuged at 4,000 × g for 5 min. Cell pellets were washed twice with 0.1 M sodium cacodylate buffer, pH 7.2, then heated to 40 °C and embedded into 3% low melting agarose. The agarose was dissolved at 40 °C in a water bath and after aspiration of the supernatant a volume of approximately 10 µL was left, which was resuspended in agarose. After centrifugation at approximately 4,000 x g for 2 min, the samples were covered with 1% OsO4 in 0.1 M sodium cacodylate buffer for 60 min at RT. After washing two times with sodium cacodylate buffer for 10 min and twice with 70% EtOH for 15 min at RT, block contrast was applied using 1% uranyl acetate/1% phosphorotungstic acid in 70% EtOH (freshly prepared and filtered) for 1 h at RT. The samples were dehydrated in a graded ethanol series (90% EtOH, 96% EtOH, 100% EtOH) and embedded in SPURR epoxy resin (Serva, Heidelberg, Germany, #21,050). After polymerization at 70 °C for 24 h, 70 nm ultrathin sections were cut using an Ultracut EM UC7 (Leica, Wetzlar, Germany). […]

HeLa wt cells [2] = assay: Immunofluorescence of GRASP55 and LC3; type: cell-based; conditions: 6 h
Method: For immunofluorescence microscopy, HeLa cells were seeded on glass coverslips in 24-well plates. After treatment, cells were fixed in 4% paraformaldehyde for 15 min on ice, quenched with 50 mM NH4Cl for 15 min and permeabilized with 50 µg/mL digitonin (Sigma-Aldrich, St. Louis, MO, USA, #D141) for 5 min. Fixed samples were blocked with 3% BSA (Roth, Karlsruhe, Germany, #8076) for 30 min or overnight and incubated with primary antibodies diluted in 3% BSA for 2 h. Samples were then washed three times with DPBS, incubated with the appropriate secondary antibodies diluted in 3% BSA for 30 min and washed three times with DPBS. Afterwards, cells were embedded in ProLong Glass Antifade Mountant (Thermo Fisher Scientific, Waltham, MA, USA, #P36980) containing 1 µg/mL DAPI (Roth, Karlsruhe, Germany, #6335.1). Images were recorded with an Axio Observer 7 fluorescence microscope (Carl Zeiss Microscopy, Oberkochen, Germany) using a 40x/1,4 Oil DIC M27 Plan-Apochromat objective (Carl Zeiss Microscopy, Oberkochen, Germany) and an ApoTome 2 (Carl Zeiss Microscopy, Oberkochen, Germany).

GRASP55 = GRASP55 (Homo sapiens, UniProt Q9H8Y8); assay: Thermal proteome profiling temperature range (TPP-TR/RTSA), GRASP55; type: binding; parameters: endogenous in cells; host or cells: HeLa wt cells; conditions: 100 nM, 6 h
Method: TPP was performed essentially as described, but with major modifications to the TMT labeling sets and statistical data analysis for TPP-TR.
Adherent cells were washed in the dish once with DPBS and harvested by Trypsin–EDTA (0.25%, Thermo Fisher Scientific, Waltham, MA, USA, #25,200,056) treatment. […]
After temperature treatment, samples were supplemented with lysis buffer (final concentrations: 0.36 U/µL benzonase, 1.5 mM MgCl2, 1 mM Na3VO4, 10 mM NaF, 2.5 mM Na4P2O7, 0.8% w/v NP-40) for 1 h on ice. […] The total protein concentration of the resulting cell extracts containing the fraction of soluble, non-denatured proteins was determined (Pierce 660 nm Protein Assay, BSA as standard). […] The two (37 °C or 50 °C) x ten (concentrations) x three (replicates) = 60 TPP-CCR samples and two (treatment and control) x ten (temperatures) x three (replicates) = 60 TPP-TR samples were analyzed by LC–MS/MS. GRASP55 was additionally quantified from the TPP-TR samples by immunoblotting as described in the respective section.
For TPP-CCR, SP3 was performed as described with slight modifications to the original protocol using on average 5 µg total protein per sample and resulting in theoretically 5 µg peptides in 22 µL 50 mM triethylammonium bicarbonate per sample. […] This volume was calculated such that the lowest two temperature samples (36.5 °C and 41.2 °C) contained 10 µg total protein on average. […]

CCCCCC1=C/C(=C/c2[nH]c(-c3ccc[nH]3)cc2OC)N=C1C [Prodigiosin, prodigiosin]
Golgi apparatus morphology (TEM) (HeLa wt cells [1]; 10 nM): cisternae number and length decreased and cisternae were more voluminous
Golgi apparatus morphology (TEM) (HeLa wt cells [1]; 100 nM): distinct swelling of the Golgi apparatus
co-localization of LC3 and GRASP55 (HeLa wt cells [2]; BafA1 10 nM): highly significant, dose-dependent increase
number of LC3 dots (HeLa wt cells [2]; BafA1 10 nM): increased dose-dependently
mean area of GRASP55 dots (HeLa wt cells [2]; all concentrations, vs DMSO): significantly increased
mean melting point difference of GRASP55 (TPP-TR) (GRASP55; HeLa wt, vs DMSO): 2.1 °C
effect on GRASP55 abundance (GRASP55; intensities at 36.5 °C): No effect
